What was measured:
Human Calpain 1/NS1 = target: T1, Human Calpain 1/NS1 (Homo sapiens, UniProt P07384); assay: Biochemical inhibition of calpain 1, continuous fluorescence (FRET substrate) assay; conditions: mean; read-out: Human Calpain 1/NS1 IC50 (nM)_MEAN
T1 sequence (P07384 1-714): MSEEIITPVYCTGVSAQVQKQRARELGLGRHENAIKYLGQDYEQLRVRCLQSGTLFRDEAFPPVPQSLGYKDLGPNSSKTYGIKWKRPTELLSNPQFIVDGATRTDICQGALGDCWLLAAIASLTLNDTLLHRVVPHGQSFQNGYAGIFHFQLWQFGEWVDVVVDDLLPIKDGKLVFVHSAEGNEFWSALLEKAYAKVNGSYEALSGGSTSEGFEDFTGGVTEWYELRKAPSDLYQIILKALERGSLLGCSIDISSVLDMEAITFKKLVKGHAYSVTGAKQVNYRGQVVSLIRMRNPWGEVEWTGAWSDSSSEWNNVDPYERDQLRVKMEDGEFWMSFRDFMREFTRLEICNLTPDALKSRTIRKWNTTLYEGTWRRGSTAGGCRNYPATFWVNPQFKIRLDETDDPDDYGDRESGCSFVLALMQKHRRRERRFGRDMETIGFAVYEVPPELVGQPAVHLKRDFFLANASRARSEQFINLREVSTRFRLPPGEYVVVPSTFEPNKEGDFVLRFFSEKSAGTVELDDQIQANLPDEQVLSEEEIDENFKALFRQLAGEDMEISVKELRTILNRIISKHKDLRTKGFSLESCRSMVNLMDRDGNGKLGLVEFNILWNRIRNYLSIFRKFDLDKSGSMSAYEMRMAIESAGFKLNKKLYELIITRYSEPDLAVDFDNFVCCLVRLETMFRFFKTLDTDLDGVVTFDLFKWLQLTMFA
T1 sequence (P04632 1-268 partner): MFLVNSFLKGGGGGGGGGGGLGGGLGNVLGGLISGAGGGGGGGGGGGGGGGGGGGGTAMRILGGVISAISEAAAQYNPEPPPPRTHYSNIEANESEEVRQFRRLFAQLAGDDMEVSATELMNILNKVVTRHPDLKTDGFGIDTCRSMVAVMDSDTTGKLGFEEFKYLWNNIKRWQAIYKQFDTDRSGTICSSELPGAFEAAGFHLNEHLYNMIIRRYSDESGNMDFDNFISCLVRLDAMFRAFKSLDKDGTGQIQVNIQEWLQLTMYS
Method: (§1) Calpain 1, 2, and 9 activity and inhibition thereof are assessed by means of a continuous fluorescence assay. The SensoLyte 520 Calpain substrate (Anaspec Inc) is optimized for detecting calpain activity. This substrate contains a novel internally quenched 5-FAM/QXL™ 520 FRET pair. Calpains 1, 2, and 9 cleave the FRET substrate into two separate fragments resulting in an increase of 5-FAM fluorescence that is proportional to calpain activity.
(§2) Assays are typically setup in black 384-well plates using automated liquid handling as follows. Calpain assay base buffer typically contains 50 mM Tris, pH 7.5, 100 mM NaCl and 1 mM DTT. Inhibitors are serially diluted in DMSO and used to setup 2× mixtures with calpains in the aforementioned buffer. After incubation at ambient temperature (25 C), the reaction is initiated by adding a 2× mix of the fluorescent peptide substrate and CaCl2 (required for in-situ calpain activation) in the same buffer. Reaction progress curve data are typically collected for 10 min using excitation/emission wavelengths of 490 nm/520 nm on SpectraMax i3x or the FLIPR-Tetra plate readers (Molecular Devices Inc). Reaction rates were calculated from progress curve slopes typically over 1-5 min. Dose response curves (rate vs. log inhibitor concentration) were typically fit to a 4-parameter logistic function to extract IC50 values.

Human Calpain 2/NS1 = target: T2, Human Calpain 2/NS1 (Homo sapiens, UniProt P17655); assay: Biochemical inhibition of calpain 2, continuous fluorescence (FRET substrate) assay; conditions: mean; read-out: Human Calpain 2/NS1 1C50 [sic] (nM)_MEAN
T2 sequence (P17655 1-700): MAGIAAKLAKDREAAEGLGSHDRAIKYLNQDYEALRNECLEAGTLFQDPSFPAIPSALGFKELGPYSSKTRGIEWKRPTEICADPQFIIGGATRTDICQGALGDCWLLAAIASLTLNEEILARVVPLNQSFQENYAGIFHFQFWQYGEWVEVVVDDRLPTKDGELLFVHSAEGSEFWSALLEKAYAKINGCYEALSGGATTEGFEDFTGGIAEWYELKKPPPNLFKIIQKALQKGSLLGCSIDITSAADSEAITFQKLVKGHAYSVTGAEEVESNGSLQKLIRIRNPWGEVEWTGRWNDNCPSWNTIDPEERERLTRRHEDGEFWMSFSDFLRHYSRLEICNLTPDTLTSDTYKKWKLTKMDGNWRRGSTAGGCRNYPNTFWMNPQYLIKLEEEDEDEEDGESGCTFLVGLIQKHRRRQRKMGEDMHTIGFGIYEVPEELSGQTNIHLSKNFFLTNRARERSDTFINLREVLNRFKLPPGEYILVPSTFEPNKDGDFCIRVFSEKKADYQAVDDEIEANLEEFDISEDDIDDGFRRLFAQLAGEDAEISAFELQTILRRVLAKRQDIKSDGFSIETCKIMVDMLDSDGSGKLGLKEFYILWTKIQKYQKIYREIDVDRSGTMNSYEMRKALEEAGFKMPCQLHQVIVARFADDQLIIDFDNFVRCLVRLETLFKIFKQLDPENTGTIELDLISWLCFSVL
T2 sequence (P04632 1-268 partner): T1 sequence (P04632 1-268 partner)
Method: as §1, §2

Human Calpain 9/NS1 = target: T3, Human Calpain 9/NS1 (Homo sapiens, UniProt O14815); assay: Biochemical inhibition of calpain 9, continuous fluorescence (FRET substrate) assay; conditions: mean; read-out: Human Calpain 9/NS1 IC50 (nM)_MEAN
T3 sequence (O14815 1-690): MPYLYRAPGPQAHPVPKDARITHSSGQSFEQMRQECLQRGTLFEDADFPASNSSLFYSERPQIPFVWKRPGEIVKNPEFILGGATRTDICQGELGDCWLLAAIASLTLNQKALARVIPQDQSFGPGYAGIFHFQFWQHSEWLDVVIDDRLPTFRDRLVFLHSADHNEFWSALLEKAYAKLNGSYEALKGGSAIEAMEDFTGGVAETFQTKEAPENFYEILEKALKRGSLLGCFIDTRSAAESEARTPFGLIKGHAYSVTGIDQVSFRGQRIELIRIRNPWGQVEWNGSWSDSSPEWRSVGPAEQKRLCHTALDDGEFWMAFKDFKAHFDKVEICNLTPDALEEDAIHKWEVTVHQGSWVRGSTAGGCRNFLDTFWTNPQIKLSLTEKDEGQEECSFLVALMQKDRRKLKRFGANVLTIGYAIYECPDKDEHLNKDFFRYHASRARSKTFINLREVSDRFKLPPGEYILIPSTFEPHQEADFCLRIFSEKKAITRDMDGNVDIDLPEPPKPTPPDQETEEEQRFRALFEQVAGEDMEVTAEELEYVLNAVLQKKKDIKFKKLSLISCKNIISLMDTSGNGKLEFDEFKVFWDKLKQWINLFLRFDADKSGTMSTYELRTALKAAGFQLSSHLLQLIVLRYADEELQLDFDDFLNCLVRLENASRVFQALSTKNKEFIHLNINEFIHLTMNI
T3 sequence (P04632 1-268 partner): T1 sequence (P04632 1-268 partner)
Method: as §1, §2

[1] = system: calpain activity in SH-SY5Y cells (Spectrin); assay: SH-SY5Y Spectrin cellular calpain inhibition; format: cell-based
[2] = system: calpain activity in SH-SY5Y cells; assay: SH-SY5Y cellular calpain activity, Suc-LLVY-AMC fluorescence assay; format: cell-based; conditions: Suc-LLVY-AMC substrate
Method: Calpain activity in SH-SY5Y cells and inhibition thereof were assessed by means of a homogeneous, fluorescence assay that uses the cell-permeable and pro-fluorescent calpain substrate Suc-LLVY-AMC (Sigma-Aldrich Inc). Upon intracellular calpain cleavage of Suc-LLVY-AMC, fluorescent amino-methyl-coumarin (AMC) is released into the media resulting in a continuous increase in fluorescence signal that is proportional to intra-cellular calpain activity.
Assays were typically setup by seeding SH-SY5Y cells in black 384-well plates at 40 k/per well in RPMI-1640 containing 1% serum followed by 37 C overnight incubation. Next morning, cells were pre-incubated for 30 min with serially diluted compounds followed by addition of 100 uM of Suc-LLVY-AMC substrate. The continuous increase in AMC fluorescence is monitored using a FLIPR, Tetra plate reader (Molecular Devices Inc) and slopes measured to report calpain activity. Dose response curves (slopes vs. log inhibitor concentration) were typically fit to a 4-parameter logistic function to extract IC50 values.

SMILES | IC50 (Human Calpain 1/NS1) [nM] | IC50 (Human Calpain 2/NS1) [nM] | IC50 (Human Calpain 9/NS1) [nM] | IC50 [1] [µM] | IC50 [2] [µM]
O=CC(Cc1ccccc1)NC(=O)c1c(Cl)ccc2ccccc12 (stereo not drawn) [Compound 44, 2-CHLORO-N-(1-OXO-3-PHENYLPROPAN-2-YL)-1-NAPHTHAMIDE] | < 3000 | < 3000 | < 3000 | < 10 | < 10
COc1ccc(Br)cc1C(=O)N[C@@H](Cc1ccccc1)C(=O)C(N)=O [Compound 35, (S)—N-(4-AMINO-3,4-DIOXO-1-PHENYLBUTAN-2-YL)-5-BROMO-2-METHOXYBENZAMIDE] | < 3000 | < 3000 | < 3000 | 10 to 25 | < 10
NC(=O)C(=O)C(Cc1ccccc1)NC(=O)c1cccc2c1Oc1ccccc1O2 (stereo not drawn) [Compound 7, N-(4-AMINO-3,4-DIOXO-1-PHENYLBUTAN-2-YL)DIBENZO[b,e][1,4]DIOXINE-1-CARBOXAMIDE] | < 3000 | < 3000 | < 3000 | 10 to 25 | > 25
O=CC(Cc1ccccc1)NC(=O)c1c(Cl)cccc1Cl (stereo not drawn) [Compound 45, 2,6-DICHLORO-N-(1-OXO-3-PHENYLPROPAN-2-YL)BENZAMIDE] | < 3000 | < 3000 | < 3000 | 10 to 25 | < 10
NC(=O)C(=O)C(Cc1ccccc1)NC(=O)c1cccc2c1oc1ccccc12 (stereo not drawn) [Compound 9, N-(4-AMINO-3,4-DIOXO-1-PHENYLBUTAN-2-YL)DIBENZO[b,d]FURAN-4-CARBOXAMIDE] | < 3000 | < 3000 | < 3000 | > 25 | > 25
O=CC(Cc1ccccc1)NC(=O)c1cccc2c1Oc1ccccc1O2 (stereo not drawn) [Compound 48] | < 3000 | < 3000 | < 3000 | > 25 | > 25
NC(=O)C(=O)[C@H](Cc1ccccc1)NC(=O)c1c(F)cccc1I [Compound 27, (S)—N-(4-AMINO-3,4-DIOXO-1-PHENYLBUTAN-2-YL)-2-FLUORO-6-IODOBENZAMIDE] | < 3000 | < 3000 | < 3000 | 10 to 25 | < 10
Cc1ccc(F)c(C(=O)NC(C=O)Cc2ccccc2)c1Cl (stereo not drawn) [Compound 42, 2-CHLORO-6-FLUORO-3-METHYL-N-(1-OXO-3-PHENYLPROPAN-2-YL)BENZAMIDE] | < 3000 | < 3000 | < 3000 | 10 to 25 | < 10
NC(=O)C(=O)C(Cc1ccccc1)NC(=O)c1c(Cl)ccc2ccccc12 (stereo not drawn) [Compound 13, N-(4-AMINO-3,4-DIOXO-1-PHENYLBUTAN-2-YL)-2-CHLORO-1-NAPHTHAMIDE] | < 3000 | < 3000 | < 3000 | 10 to 25 | 10 to 25
NC(=O)C(=O)[C@H](Cc1ccccc1)NC(=O)c1cc(Br)ccc1Cl [Compound 34, (S)—N-(4-AMINO-3,4-DIOXO-1-PHENYLBUTAN-2-YL)-5-BROMO-2-CHLOROBENZAMIDE] | < 3000 | < 3000 | < 3000 | < 10 | < 10

More lines, now with the values ahead:

IC50 (Human Calpain 1/NS1) [nM] | IC50 (Human Calpain 2/NS1) [nM] | IC50 (Human Calpain 9/NS1) [nM] | IC50 [1] [µM] | IC50 [2] [µM] | SMILES
< 3000 | < 3000 | < 3000 | 10 to 25 | < 10 | NC(=O)C(=O)[C@H](Cc1ccccc1)NC(=O)c1c(Cl)cccc1Br [Compound 14, (S)—N-(4-AMINO-3,4-DIOXO-1-PHENYLBUTAN-2-YL)-2-BROMO-6-CHLOROBENZAMIDE]
< 3000 | < 3000 | < 3000 | 10 to 25 | > 25 | NC(=O)C(=O)[C@H](Cc1ccccc1)NC(=O)c1c(Cl)cccc1Cl [Compound 1, (S)—N-(4-AMINO-3,4-DIOXO-1-PHENYLBUTAN-2-YL)-2,6-DICHLOROBENZAMIDE]
< 3000 | < 3000 | < 3000 | 10 to 25 | < 10 | Cc1ccc(F)c(C(=O)N[C@@H](Cc2ccccc2)C(=O)C(N)=O)c1Cl [Compound 30, (S)—N-(4-AMINO-3,4-DIOXO-1-PHENYLBUTAN-2-YL)-2-CHLORO-6-FLUORO-3-METHYLBENZAMIDE]
< 3000 | < 3000 | < 3000 | < 10 | < 10 | NC(=O)C(=O)[C@H](Cc1ccccc1)NC(=O)c1c(C(F)(F)F)ccc(Cl)c1F [Compound 32, (S)—N-(4-AMINO-3,4-DIOXO-1-PHENYLBUTAN-2-YL)-3-CHLORO-2-FLUORO-6-(TRIFLUOROMETHYL)BENZAMIDE]
< 3000 | < 3000 | < 3000 | 10 to 25 | > 25 | NC(=O)C(=O)[C@H](Cc1ccccc1)NC(=O)c1c(F)cccc1C(F)(F)F [Compound 16, (S)—N-(4-AMINO-3,4-DIOXO-1-PHENYLBUTAIN-2-YL)-2-FLUORO-6-(TRIFLUOROMETHYL)BENZAMIDE]
